Test results from US20230114728A1 (Venatorx Pharmaceuticals, Inc., priority 2019, published 2023).
pEC50: −log10 of the molar value.

Columns and labels:
N. gonorrhoeae PBP2 = molecular target: T1, N. gonorrhoeae PBP2 (Neisseria gonorrhoeae, UniProt P08149); assay: Bocillin-FL fluorescence polarization competition binding assay, N. gonorrhoeae PBP2; conditions: fluorescence polarization competition binding assay using Bocillin-FL; read-out: N. gonorrhoeae PBP2 Potency
T1 construct: made in house
From the text: Example I: Experimental Method for Penicillin-Binding Protein Binding Assays with Bocillin-FL Via Fluorescence Polarization
To determine the ability of boronic acid-based test PBP inhibitors to bind Penicillin Binding Proteins (PBPs), Bocillin-FL (fluorescently-labeled penicillin V; ThermoFisher Scientific) was used in a fluorescence polarization (FP) competition binding assay to assess inhibitor binding to PBP2, PBP3 or PBP4 from Escherichia coli (K12), PBP3 from Pseudomonas aeruginosa (PA01), PBP1a, PBP2 and PBP3 from Acinetobacter baumannii (ATCC 19606), and PBP2 from Neiserria gonorrheae (FA19). PBPs were cloned and purified as described previously (E. coli PBPs, King, D. T, et al., ACS Infectious Diseases 2015, 1, 175-184; P. aeruginosa PBP3, Han et. al., PNAS 2010, 107 (51), 22002-22007; A. baumannii PBPs, Penwell et. al., Antimicrob. Agents Chemother. 2015, 59 (3), 1680-1689; N. gonorrhoeae PBP2, Singh et. al., J Biol. Chem. 2019, 294 (38), 14020-14032). To establish assay conditions for competition binding, enzyme titration/saturation binding experiments were initially performed. Bocillin-FL was prepared at 0.2 μM in a buffer comprised of 50 mM Hepes (pH 8.0), 300 mM NaCl and 5% (v/v) glycerol for reactions with E. coli, P. aeruginosa and N. gonorrhoeae PBPs, and 25 mM Tris (pH 8.0), 200 mM NaCl and 10% (v/v) glycerol and 0.005% (v/v) Tween 20 for reactions with A. baumannii PBPs. Saturation binding was performed by mixing 40 μl of PBP solutions ranging in concentrations from 0-24 μM with 40 μl of the 0.2 μM Bocillin-FL solution, in individual wells of a black 384-well microplate. FP was measured immediately upon mixing (Excitation, 490 nm; Emission, 520 nm; g-factor, 0.96), using a Cytation3 (BioTek) microplate reader and measured continuously for up to 120 minutes. […] The competition binding assay (80 μl final volume) was validated using beta-lactams and PBPs at final concentrations of: 1.5 μM, E. coli PBP3; 0.75 μM, P. aeruginosa PBP3; 1 μM A. baumannii PBP1a; 2.5 μM A. baumannii PBP2; 0.2 μM A. baumannii PBP3; and […] N. gonorrhoeae PBP2. Bocillin-FL was at 0.1 μM (0.05 μM with A. baumannii PBP1a) and beta-lactam concentrations ranged from 0-1000 μM. […] Bocillin-FL was added and the FP immediately measured for up to 60 minutes (90 minutes for E. coli PBP2). […] The beta-lactam potency was reported as the concentration of beta-lactam required to reduce the amount of PBP bound-Bocillin-FL by 50% (EC50). […] Binding assays for boronic acid PBP inhibitors were performed in an identical fashion for the respective PBPs

P. aeruginosa PBP3 = molecular target: T2, P. aeruginosa PBP3 (Pseudomonas aeruginosa, UniProt G3XD46); assay: Bocillin-FL fluorescence polarization competition binding assay, P. aeruginosa PBP3; conditions: fluorescence polarization competition binding assay using Bocillin-FL
T2 construct: made in house
Procedure, shortened: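 Inhibitor competition with Bocillin-FL for P. aeruginosa PBP3 was followed by fluorescence polarization on a Cytation3 (BioTek) reader, using g-factor 0.96, 490 nm excitation and 520 nm emission. The enzyme was at 0.75 μM and the probe at 0.1 μM in Hepes/NaCl/glycerol buffer, 80 μl per well. FP was recorded immediately after probe addition for up to 60 minutes. Potency was expressed as EC50, the concentration that reduces bound probe by 50%.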

T1 sequence (P08149 whole entry): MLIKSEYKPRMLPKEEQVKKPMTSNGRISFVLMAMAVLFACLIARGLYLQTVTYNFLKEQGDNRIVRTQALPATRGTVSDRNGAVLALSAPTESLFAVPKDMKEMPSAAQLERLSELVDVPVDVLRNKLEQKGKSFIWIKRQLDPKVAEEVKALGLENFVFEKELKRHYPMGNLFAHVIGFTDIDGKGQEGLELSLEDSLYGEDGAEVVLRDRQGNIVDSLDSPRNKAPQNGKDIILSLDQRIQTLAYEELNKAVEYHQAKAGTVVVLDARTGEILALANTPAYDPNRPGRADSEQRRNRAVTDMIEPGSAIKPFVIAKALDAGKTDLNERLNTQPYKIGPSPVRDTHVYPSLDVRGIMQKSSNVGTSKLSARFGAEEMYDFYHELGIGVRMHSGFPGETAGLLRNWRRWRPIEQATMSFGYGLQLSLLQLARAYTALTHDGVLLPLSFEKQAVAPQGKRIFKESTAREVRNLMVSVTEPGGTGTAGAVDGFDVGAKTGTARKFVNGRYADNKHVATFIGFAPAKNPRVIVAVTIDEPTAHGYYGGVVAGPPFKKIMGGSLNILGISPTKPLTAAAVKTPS
T2 sequence (G3XD46 whole entry): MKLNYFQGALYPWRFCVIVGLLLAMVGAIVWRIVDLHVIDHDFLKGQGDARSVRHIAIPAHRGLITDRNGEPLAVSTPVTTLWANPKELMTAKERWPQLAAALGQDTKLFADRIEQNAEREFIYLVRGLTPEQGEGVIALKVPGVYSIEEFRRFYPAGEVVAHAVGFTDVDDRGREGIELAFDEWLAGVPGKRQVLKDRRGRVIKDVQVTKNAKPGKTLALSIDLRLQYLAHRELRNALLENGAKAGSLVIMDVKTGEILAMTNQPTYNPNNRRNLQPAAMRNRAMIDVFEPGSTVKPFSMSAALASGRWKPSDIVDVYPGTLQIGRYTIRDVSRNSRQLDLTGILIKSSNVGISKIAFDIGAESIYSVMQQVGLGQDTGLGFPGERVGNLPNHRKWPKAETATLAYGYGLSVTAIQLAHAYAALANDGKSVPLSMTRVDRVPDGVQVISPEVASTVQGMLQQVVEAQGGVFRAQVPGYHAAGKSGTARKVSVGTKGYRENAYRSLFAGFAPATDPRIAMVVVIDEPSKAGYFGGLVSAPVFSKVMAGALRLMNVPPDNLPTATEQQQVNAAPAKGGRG

## CCN1CCN(C(=O)N[C@H](C(=O)N[C@H]2Cc3cccc(C(=O)O)c3OB2O)c2ccc(C(=O)O)cc2)C(=O)C1=O (single isomer, unassigned) [Example 123]
N. gonorrhoeae PBP2
  pEC50: > 5.00
P. aeruginosa PBP3
  P. aeruginosa PBP3 Potency: D (D represents a potency <10 μM)

## CCN1CCN(C(=O)N[C@H](C(=O)N[C@H]2Cc3cccc(C(=O)O)c3OB2O)c2ccc(C(=O)O)c(F)c2F)C(=O)C1=O (single isomer, unassigned) [Example 139]
N. gonorrhoeae PBP2
  pEC50: > 5.00
P. aeruginosa PBP3
  P. aeruginosa PBP3 Potency: D (D represents a potency <10 μM)

## CCN1CCN(C(=O)N[C@@H](C(=O)N[C@H]2Cc3cccc(C(=O)O)c3OB2O)c2ccc(C(=O)O)c(F)c2F)C(=O)C1=O (single isomer, unassigned) [Example 140]
N. gonorrhoeae PBP2
  pEC50: > 5.00
P. aeruginosa PBP3
  P. aeruginosa PBP3 Potency: D (D represents a potency <10 μM)

## CCN1CCN(C(=O)N[C@@H](C(=O)N[C@H]2Cc3cccc(C(=O)O)c3OB2O)c2ccc(C(=O)O)c(F)c2)C(=O)C1=O (single isomer, unassigned) [Example 146]
N. gonorrhoeae PBP2
  pEC50: > 5.00
P. aeruginosa PBP3
  P. aeruginosa PBP3 Potency: D (D represents a potency <10 μM)

## CCN1CCN(C(=O)N[C@H](C(=O)N[C@H]2Cc3cccc(C(=O)O)c3OB2O)c2ccc(C(=O)O)c(F)c2)C(=O)C1=O (single isomer, unassigned) [Example 147]
N. gonorrhoeae PBP2
  pEC50: > 5.00
P. aeruginosa PBP3
  P. aeruginosa PBP3 Potency: D (D represents a potency <10 μM)

## CCN1CCN(C(=O)N[C@@H](C(=O)N[C@H]2Cc3cccc(C(=O)O)c3OB2O)c2cc(F)c(C(=O)O)cc2Cl)C(=O)C1=O (single isomer, unassigned) [Example 148]
N. gonorrhoeae PBP2
  pEC50: > 5.00
P. aeruginosa PBP3
  P. aeruginosa PBP3 Potency: D (D represents a potency <10 μM)

## CCN1CCN(C(=O)N[C@H](C(=O)N[C@H]2Cc3cccc(C(=O)O)c3OB2O)c2cc(F)c(C(=O)O)cc2Cl)C(=O)C1=O (single isomer, unassigned) [Example 149]
N. gonorrhoeae PBP2
  pEC50: 4.00 to 4.52
P. aeruginosa PBP3
  P. aeruginosa PBP3 Potency: C (C represents a potency between 10 and 30 μM)

## NCCN1CCN(C(=O)NC(C(=O)N[C@H]2Cc3cccc(C(=O)O)c3OB2O)c2ccc(C(=O)O)cc2O)C(=O)C1=O (stereo partly drawn) [Example 142, (3R)-3-(2-(4-(2-aminoethyl)-2,3-dioxopiperazine-1-carboxamido)-2-(4-carboxy-2-hydroxyphenyl)acetamido)-2-hydroxy-3,4-dihydro-2H-benzo[e][1,2]oxaborinine-8-carboxylic acid]
P. aeruginosa PBP3
  P. aeruginosa PBP3 Potency: C (C represents a potency between 10 and 30 μM)

## CCN1CCN(C(=O)NC(C(=O)N[C@H]2Cc3cccc(C(=O)O)c3OB2O)c2ccc(C(=O)O)cc2F)C(=O)C1=O (stereo partly drawn) [Example 145, (3R)-3-(2-(4-carboxy-2-fluorophenyl)-2-(4-ethyl-2,3-dioxopiperazine-1-carboxamido)acetamido)-2-hydroxy-3,4-dihydro-2H-benzo[e][1,2]oxaborinine-8-carboxylic acid]
P. aeruginosa PBP3
  P. aeruginosa PBP3 Potency: D (D represents a potency <10 μM)

## CCN1CCN(C(=O)NC(C(=O)N[C@H]2Cc3cccc(C(=O)O)c3OB2O)c2c(Cl)cc(C(=O)O)cc2Cl)C(=O)C1=O (stereo partly drawn) [Example 150, (3R)-3-(2-(4-carboxy-2,6-dichlorophenyl)-2-(4-ethyl-2,3-dioxopiperazine-1-carboxamido)acetamido)-2-hydroxy-3,4-dihydro-2H-benzo[e][1,2]oxaborinine-8-carboxylic acid]
P. aeruginosa PBP3
  P. aeruginosa PBP3 Potency: D (D represents a potency <10 μM)

## NCCN1CCN(C(=O)NC(C(=O)N[C@H]2Cc3cccc(C(=O)O)c3OB2O)c2ccc(C(=O)O)c(Cl)c2)C(=O)C1=O (stereo partly drawn) [Example 153, (3R)-3-(2-(4-(2-aminoethyl)-2,3-dioxopiperazine-1-carboxamido)-2-(4-carboxy-3-chlorophenyl)acetamido)-2-hydroxy-3,4-dihydro-2H-benzo[e][1,2]oxaborinine-8-carboxylic acid]
P. aeruginosa PBP3
  P. aeruginosa PBP3 Potency: D (D represents a potency <10 μM)

## O=C(O)c1cccc2c1OB(O)[C@@H](NC(=O)C(NC(=O)N1CCNC1=O)c1c(F)cc(O)cc1F)C2 (stereo partly drawn) [Example 156, (3R)-3-(2-(2,6-difluoro-4-hydroxyphenyl)-2-(2-oxoimidazolidine-1-carboxamido)acetamido)-2-hydroxy-3,4-dihydro-2H-benzo[e][1,2]oxaborinine-8-carboxylic acid]
P. aeruginosa PBP3
  P. aeruginosa PBP3 Potency: D (D represents a potency <10 μM)

## CCN1CCN(C(=O)NC(C(=O)N[C@H]2Cc3cccc(C(=O)O)c3OB2O)c2c(F)cc(C(=O)O)cc2F)C(=O)C1=O (stereo partly drawn) [Example 157, (3R)-3-(2-(4-carboxy-2,6-difluorophenyl)-2-(4-ethyl-2,3-dioxopiperazine-1-carboxamido)acetamido)-2-hydroxy-3,4-dihydro-2H-benzo[e][1,2]oxaborinine-8-carboxylic acid]
P. aeruginosa PBP3
  P. aeruginosa PBP3 Potency: D (D represents a potency <10 μM)

## CCN1CCN(C(=O)NC(C(=O)N[C@H]2Cc3cccc(C(=O)O)c3OB2O)c2cc(F)c(O)c(F)c2)C(=O)C1=O (stereo partly drawn) [Example 160, (3R)-3-(2-(3,5-difluoro-4-hydroxyphenyl)-2-(4-ethyl-2,3-dioxopiperazine-1-carboxamido)acetamido)-2-hydroxy-3,4-dihydro-2H-benzo[e][1,2]oxaborinine-8-carboxylic acid]
P. aeruginosa PBP3
  P. aeruginosa PBP3 Potency: D (D represents a potency <10 μM)

## NCCN1CCN(C(=O)NC(C(=O)N[C@H]2Cc3cccc(C(=O)O)c3OB2O)c2cc(F)c(O)c(Cl)c2)C(=O)C1=O (stereo partly drawn) [Example 163, (3R)-3-(2-(4-(2-aminoethyl)-2,3-dioxopiperazine-1-carboxamido)-2-(3-chloro-5-fluoro-4-hydroxyphenyl)acetamido)-2-hydroxy-3,4-dihydro-2H-benzo[e][1,2]oxaborinine-8-carboxylic acid]
P. aeruginosa PBP3
  P. aeruginosa PBP3 Potency: D (D represents a potency <10 μM)

## CCN1CCN(C(=O)NC(C(=O)N[C@H]2Cc3cccc(C(=O)O)c3OB2O)c2cc(F)c(O)c(Cl)c2)C(=O)C1=O (stereo partly drawn) [Example 164, (3R)-3-(2-(3-chloro-5-fluoro-4-hydroxyphenyl)-2-(4-ethyl-2,3-dioxopiperazine-1-carboxamido)acetamido)-2-hydroxy-3,4-dihydro-2H-benzo[e][1,2]oxaborinine-8-carboxylic acid]
P. aeruginosa PBP3
  P. aeruginosa PBP3 Potency: D (D represents a potency <10 μM)

## CCN1CCN(C(=O)NC(C(=O)N[C@H]2Cc3cccc(C(=O)O)c3OB2O)c2cc(Cl)c(O)c(Cl)c2)C(=O)C1=O (stereo partly drawn) [Example 171, (3R)-3-(2-(3,5-dichloro-4-hydroxyphenyl)-2-(4-ethyl-2,3-dioxopiperazine-1-carboxamido)acetamido)-2-hydroxy-3,4-dihydro-2H-benzo[e][1,2]oxaborinine-8-carboxylic acid]
P. aeruginosa PBP3
  P. aeruginosa PBP3 Potency: D (D represents a potency <10 μM)

## CCN1CCN(C(=O)NC(C(=O)N[C@H]2Cc3cccc(C(=O)O)c3OB2O)c2cc(F)c(O)c(F)c2F)C(=O)C1=O (stereo partly drawn) [Example 172, (3R)-3-(2-(4-ethyl-2,3-dioxopiperazine-1-carboxamido)-2-(2,3,5-trifluoro-4-hydroxyphenyl)acetamido)-2-hydroxy-3,4-dihydro-2H-benzo[e][1,2]oxaborinine-8-carboxylic acid]
P. aeruginosa PBP3
  P. aeruginosa PBP3 Potency: D (D represents a potency <10 μM)

## CCN1CCN(C(=O)NC(C(=O)N[C@H]2Cc3cccc(C(=O)O)c3OB2O)c2ccc(O)c(F)c2F)C(=O)C1=O (some centres unmarked) [Example 173]
P. aeruginosa PBP3
  P. aeruginosa PBP3 Potency: D (D represents a potency <10 μM)
